Laboratory results: US9247738B2, “Method and composition for inhibition of microbial growth in aqueous food transport and process streams” (Ecolab USA Inc., priority 2000, dated 2016)

Assays:
Format in all cases: cell-based
coliform bacteria [1] = experiment: Antimicrobial efficacy on fresh-cut vegetables, coliform bacteria; settings: 30 second exposure to process water
Procedure: (§1) Vegetable processing water testing was done using the same antimicrobial agents as in laboratory aqueous system testing. The varying concentrations of each agent are listed in the results section. Municipal tap water was the diluent.
(§2) The reduction of microorganisms in vegetable processing water treated with peroxyacetic acid or a peroxyacetic acid/peroxyoctanoic acid mixture was determined. Testing was done in two separate recycled water systems. In both systems, cut vegetables fell into a water stream that carried them to a de-watering area where they were collected for further processing. The water that the vegetables traveled in was routed to a balance tank that fed back into the original water stream thus completing the process loop. One system was used to wash cut, raw celery or cabbage. The other system was used to transport cut, raw potatoes to a blancher.
(§3) Microorganism reduction on vegetable surfaces in the transport and process water was determined while water analyses were being conducted. Ten samples of each cut vegetable were collected just prior to falling into the process water stream and just after de-watering.
(§4) Eleven grams of each sample were transferred to bag containing 99 mL of sterile phosphate buffered water. Contents of the bag were mixed in a Stomacher brand mixer for approximately 1 minute. Afterwards, 1 mL of the mixture was plated on Petrifilm brand Aerobic Plate Count, Coliform Count and Yeast & Mold Count media. 1 mL quantities of 100-fold serial dilutions were also plated. Petrifilms were incubated and enumerated as described above in this Example.
(§5) The same analysis was used to evaluate the significance of reduction on vegetable surfaces.

coliform bacteria [2] = experiment: Antimicrobial efficacy in fresh-cut vegetable processing water, Coliform Count
Procedure: as §1, §2
(§6) During processing of each vegetable, 10 water samples were collected in sterile plastic bags containing an inactivating agent (0.01% sodium thiosulfate). 1 mL quantities were plated on Petrifilm® (3M, Inc.) Aerobic Plate Count, Coliform Count and Yeast & Mold Count media. Validation of these media using this procedure was performed prior to initiating testing (data not presented). Serial 100-fold dilutions were also plated. Petrifilms were incubated at 35° C. for 24 hours (Coliform Count), 35° C. for 48 hours (Aerobic Plate Count), or at room temperature for 72 hours (Yeast & Mold Count). The number of microorganisms was counted following incubation.
as §5

yeast and mold = experiment: Antimicrobial efficacy in fresh-cut vegetable processing water, Yeast & Mold Count
Procedure: as §1, §2, §6, §5

Yeast & Mold = experiment: Antimicrobial efficacy on fresh-cut vegetables, yeast & mold; settings: 30 second exposure to process water
Procedure: as §1, §2, §3
Eleven grams of each sample were transferred to bag containing 99 mL of sterile phosphate buffered water. Contents of the bag were mixed in a Stomacher brand mixer for approximately 1 minute. […] 1 mL quantities of 100-fold serial dilutions were also plated. […]

Aerobic Bacteria = experiment: Antimicrobial efficacy on fresh-cut vegetables, aerobic bacteria; settings: 30 second exposure to process water
Procedure: as §1, §2, §3, §4, §5

Listeria monocytogenes = experiment: Kill of pathogenic bacteria on tomato surfaces and in the wash solution
Procedure: The following procedure was employed for determining whether a composition killed pathogenic bacteria (e.g. Escherichia coli O157:H7, Listeria monocytogenes, or Salmonella javiana) on the surface of a fruit or vegetable. Bacteria were applied to tomato surfaces and allowed a 1-2 hour attachment time. […] After 1 minute, tomatoes were transferred to a solution that neutralized the peroxy acids and peroxides and massaged for 3 minutes to remove attached bacteria. The number of attached bacteria that survived treatment was determined using standard agar plating technique. The number of bacteria that “fell off” the tomato into the water or peroxyacetic/peroxyoctanoic acid mixture according to the present invention, and survived, was also determined by neutralization and agar plating technique. A similar experiment was conducted employing a peroxyacetic acid antimicrobial composition.

Salmonella javiana = experiment: as above
Procedure: (§7) The following procedure was employed for determining whether a composition killed pathogenic bacteria (e.g. Escherichia coli O157:H7, Listeria monocytogenes, or Salmonella javiana) on the surface of a fruit or vegetable. Bacteria were applied to tomato surfaces and allowed a 1-2 hour attachment time. Contaminated tomatoes were submersed in a peroxyacetic/peroxyoctanoic acid mixture according to the present invention (at a level yielding 40 ppm peroxyacetic acid) or water for 1 minute without agitation. After 1 minute, tomatoes were transferred to a solution that neutralized the peroxy acids and peroxides and massaged for 3 minutes to remove attached bacteria. The number of attached bacteria that survived treatment was determined using standard agar plating technique. The number of bacteria that “fell off” the tomato into the water or peroxyacetic/peroxyoctanoic acid mixture according to the present invention, and survived, was also determined by neutralization and agar plating technique. A similar experiment was conducted employing a peroxyacetic acid antimicrobial composition.

Escherichia coli O157:H7 = experiment: as above
Procedure: as §7

Cryptococcus species = experiment: Rate of fungus kill in use-solution; settings: Cryptococcus sp., 80 ppm total peracid, 25° C.
Procedure: (§8) Routine transfer to Sabouraud Dextrose agar slants maintained cultures of Candida parapsilosis (from blueberry processing water), Rhodotorula species (from celery processing water), Cryptococcus species (from potato processing water) and Zygosaccharomyces bailii (ATCC 60483). Growth was harvested by adding 5 mL of phosphate buffered water to the slant, mixing and then transferring the suspension into 90 mL of phosphate buffered water. The resulting suspension was used for testing.
(§9) Two antimicrobial agents were used for testing. The first agent contained peroxyacetic acid. The second contained a peroxyacetic acid/peroxyoctanoic acid mixture. Both agents were diluted in sterile deionized water to achieve a total peracid concentration of 80 ppm. The composition of the use-solutions were as follows:
(§10) The rate at which peroxyacetic acid and a peroxyacetic acid/peroxyoctanoic acid mixture killed fungi was measured by inoculating use-solutions of each antimicrobial agent with fungi and then quantifying survivors after various exposure times.
(§11) Testing was performed in duplicate. 99 mL of each antimicrobial use-solution was transferred to a 250 mL Erlenmeyer flask and allowed to equilibrate to 25° C. The liquid in the flask was swirled vigorously in a rapid circular motion and 1 mL of a fungus suspension was added. After 30 seconds, 2, 5 or 10 minutes 1 mL quantities of the use-solution were transferred to 9 mL of an inactivating solution including 0.1% sodium thiosulfate. 1 mL quantities of the inactivating solution were pour-plated using Sabouraud Dextrose agar. Serial 100-fold dilutions of the inactivating solution were also plated. Agar plates were incubated for 72 hours at 26° C. before counting survivors. The log reduction of fungi due to the antimicrobial agent was determined by comparing reduction to a water control.

Rhodotorula species = experiment: Rate of fungus kill in use-solution; settings: Rhodotorula sp., 80 ppm total peracid, 25° C.
Procedure: as §8, §9, §10, §11

Candida parapsilosis = experiment: Rate of fungus kill in use-solution; settings: 80 ppm total peracid, 25° C.
Procedure: as §8, §9, §10, §11

[3] = test system: Zygosaccharomyces bailii (ATCC 60483); experiment: Rate of fungus kill in use-solution; settings: Z. bailii, 80 ppm total peracid, 25° C.
Procedure: as §8, §9, §10, §11

Penicillium species = experiment: Rate of fungus kill in use-solution (mold conidia); settings: Penicillium sp., 80 ppm total peracid, 25° C.
Procedure: (§12) Routine transfer to Sabouraud Dextrose agar slants maintained cultures of Aspergillus species (from onion processing water), Penicillium species (from celery processing water) and Cladosporium species (from potato processing water). Conidia suspensions of each mold were prepared by subculturing each mold to Sabouraud Dextrose agar plates and incubating until thick aerial mycelia with conidia were evident. Conidia were harvested by adding approximately 10 mL of phosphate buffered water to the plate, scraping the mycelia and collecting the suspension in a flask. The suspension was filtered through sterile gauze to remove large mycelia fragments from the conidia. The resulting suspension was used for testing.
as §9, §10, §11

Cladosporium species = experiment: Rate of fungus kill in use-solution (mold conidia); settings: Cladosporium sp., 80 ppm total peracid, 25° C.
Procedure: as §12, §9, §10, §11

Aspergillus species = experiment: Rate of fungus kill in use-solution (mold conidia); settings: Aspergillus sp., 80 ppm total peracid, 25° C.
Procedure: as §12, §9, §10, §11

total aerobic bacteria = experiment: Antimicrobial efficacy in fresh-cut vegetable processing water, Aerobic Plate Count
Procedure: as §1, §2, §6, §5

[4] = Cabbage, peracid POAA agent 26 ppm, POAA/POOA agent 29 ppm
[5] = Celery, peracid POAA agent 38 ppm, POAA/POOA agent 39 ppm
[6] = Potatoes, peracid POAA agent 54 ppm, POAA/POOA agent 32 ppm
[7] = Cabbage process water, average peracid from POAA agent 26 ppm, from POAA/POOA agent 29 ppm
[8] = Celery process water, average peracid from POAA agent 38 ppm, from POAA/POOA agent 39 ppm
[9] = Potatoes process water, average peracid from POAA agent 54 ppm, from POAA/POOA agent 32 ppm

SMILES: CC(=O)OO [POAA, peroxyacetic acid]
- Average log reduction on fresh-cut vegetables, Coliform Bacteria Reduction (coliform bacteria [1]; [4]): >0.88 log
- Average log reduction on fresh-cut vegetables, Coliform Bacteria Reduction (coliform bacteria [1]; [5]): 0.77 log
- Average log reduction on fresh-cut vegetables, Coliform Bacteria Reduction (coliform bacteria [1]; [6]): >1.58 log
- Average number of microorganisms in process water, Coliform Count (coliform bacteria [2]; [7]): 0 log CFU/mL
- Average number of microorganisms in process water, Coliform Count (coliform bacteria [2]; [8]): 0 log CFU/mL
- Average number of microorganisms in process water, Coliform Count (coliform bacteria [2]; [9]): 0 log CFU/mL
- Average number of microorganisms in process water, Yeast & Mold Count (yeast and mold; [7]): 2.02 log CFU/mL
- Average number of microorganisms in process water, Yeast & Mold Count (yeast and mold; [8]): 1.86 log CFU/mL
- Average number of microorganisms in process water, Yeast & Mold Count (yeast and mold; [9]): 5.48 log CFU/mL
- Average log reduction on fresh-cut vegetables, Yeast & Mold Reduction (Yeast & Mold; [4]): 0.77 log
- Average log reduction on fresh-cut vegetables, Yeast & Mold Reduction (Yeast & Mold; [5]): 0.68 log
- Average log reduction on fresh-cut vegetables, Aerobic Bacteria Reduction (Aerobic Bacteria; [4]): 0.84 log
- Average log reduction on fresh-cut vegetables, Aerobic Bacteria Reduction (Aerobic Bacteria; [5]): 1.07 log
- Average log reduction on fresh-cut vegetables, Aerobic Bacteria Reduction (Aerobic Bacteria; [6]): 1.54 log
- reduction of L. monocytogenes on tomatoes (Listeria monocytogenes; 20 ppm POAA): 84%
- reduction of L. monocytogenes on tomatoes (Listeria monocytogenes; 40 ppm POAA): 95%
- reduction of L. monocytogenes on tomatoes (Listeria monocytogenes; 60 ppm POAA): 98%
- reduction in amounts of S. javiana (Salmonella javiana; 20 ppm POAA): no reduction
- reduction in amounts of S. javiana (Salmonella javiana; 40 ppm POAA): no reduction
- reduction in amounts of S. javiana (Salmonella javiana; 60 ppm POAA): 91%
- reduction in the E. coli O157:H7 in tomato wash water (Escherichia coli O157:H7; 20 ppm POAA): 57%
- reduction in the E. coli O157:H7 in tomato wash water (Escherichia coli O157:H7; 40 ppm POAA): 88%
- reduction in the E. coli O157:H7 in tomato wash water (Escherichia coli O157:H7; 60 ppm POAA): 94%
- Average log reduction of yeast (Cryptococcus species; 2 Minutes): >7.08 log
- Average log reduction of yeast (Cryptococcus species; 5 Minutes): >7.08 log
- Average log reduction of yeast (Cryptococcus species; 30 Seconds): >7.08 log
- Average log reduction of yeast (Rhodotorula species; 2 Minutes): >3.88 log
- Average log reduction of yeast (Rhodotorula species; 5 Minutes): >3.88 log
- Average log reduction of yeast (Rhodotorula species; 30 Seconds): >3.88 log
- Average log reduction of yeast (Candida parapsilosis; 2 Minutes): 1.49 log
- Average log reduction of yeast (Candida parapsilosis; 5 Minutes): 3.42 log
- Average log reduction of yeast (Candida parapsilosis; 30 Seconds): 0.34 log
- Average log reduction of yeast ([3]; 2 Minutes): 0.18 log
- Average log reduction of yeast ([3]; 5 Minutes): 0.94 log
- Average log reduction of yeast ([3]; 30 Seconds): 0.16 log
- Average log reduction of mold (Penicillium species; 2 Minutes): 0 log
- Average log reduction of mold (Penicillium species; 5 Minutes): 0.45 log
- Average log reduction of mold (Penicillium species; 10 Minutes): 1.52 log
- Average log reduction of mold (Cladosporium species; 2 Minutes): 1.86 log
- Average log reduction of mold (Cladosporium species; 5 Minutes): 4.18 log
- Average log reduction of mold (Cladosporium species; 10 Minutes): >4.18 log
- Average log reduction of mold (Aspergillus species; 2 Minutes): 0 log
- Average log reduction of mold (Aspergillus species; 5 Minutes): 0 log
- Average log reduction of mold (Aspergillus species; 10 Minutes): 0 log
- Average number of microorganisms in process water, Aerobic Plate Count (total aerobic bacteria; [7]): 1.92 log CFU/mL
- Average number of microorganisms in process water, Aerobic Plate Count (total aerobic bacteria; [8]): 2.02 log CFU/mL
- Average number of microorganisms in process water, Aerobic Plate Count (total aerobic bacteria; [9]): 0.92 log CFU/mL
